Measured values published in patent publication US7739055B2, “Methods and systems for generating and evaluating peptides” (priority 2005, dated 2010).
Values after ≈ are worked out from the molar mass of the structure shown. Read-outs that look alike come from different tables or passages of the source. Where a SMILES comes first, the peptide text is derived from it.

Legend:
[1] = test system: Sterne strain of Bacillus anthracis
[2] = test system: B. cereus
[3] = test system: Smith Diffuse strain of Staphylococcus aureus
[4] = test system: Escherichia coli
[5] = first concentration that prohibits growth by OD at 24 hours, Table 1

| Molecule | MIC B. anthracis [1] | MIC B. cereus ([2]; 24 h) [µg/mL] | MIC S. aureus ([3]; Smith Diffuse strain of) [µg/mL] | MIC E. coli ([4]; 24 h) [µg/mL] | MIC E. coli [4] | MIC S. aureus ([3]; Smith Diffuse strain, Table 1) | MIC E. coli [4, 5] | MIC B. cereus [2, 5] |
| --- | --- | --- | --- | --- | --- | --- | --- | --- |
| CC[C@H](C)[C@H](NC(=O)[C@H](CCCCN)NC(=O)[C@H](CCCCN)NC(=O)[C@H](Cc1ccccc1)NC(=O)[C@H](CC(C)C)NC(=O)[C@H](CCCCN)NC(=O)[C@H](Cc1c[nH]c2ccccc12)NC(=O)[C@@H](N)CCCCN)C(=O)NCC(=O)N[C@@H](C)C(=O)N[C@H](C(=O)N[C@@H](CC(C)C)C(=O)N[C@@H](CCCCN)C(=O)N[C@H](C(=O)N[C@@H](CC(C)C)C(N)=O)C(C)C)C(C)C [Cec Mel Hyb, KWKLFKKIGAVLKVL-NH2] (H-KWKLFKKIGAVLKVL-NH2) | 16 µg/mL (≈ 9.04 µM) | 8 (≈ 4.52 µM) | 4 (≈ 2.26 µM) |  |  |  |  |  |
| CC(C)C[C@H](NC(=O)CNC(=O)[C@H](Cc1ccccc1)NC(=O)[C@H](CC(C)C)NC(=O)[C@@H](N)Cc1ccccc1)C(=O)N[C@@H](C)C(=O)N[C@@H](CO)C(=O)N[C@@H](CCCCN)C(=O)N[C@H](C(=O)N[C@@H](Cc1ccccc1)C(=O)N1CCC[C@H]1C(=O)N[C@@H](C)C(=O)N[C@H](C(=O)N[C@@H](Cc1ccc(O)cc1)C(=O)N[C@@H](CS)C(=O)N[C@@H](CCCCN)C(=O)N[C@H](C(=O)N[C@H](C(=O)N[C@@H](CCCNC(=N)N)C(=O)N[C@@H](CCCCN)C(=O)O)[C@@H](C)O)C(C)C)C(C)C)C(C)C [Peptide 5] (H-FLFGLASKVFPAVYCKVTRK-OH; N-terminus and C-terminus assumed) | 128 µg/mL (≈ 56.3 µM) | 256 (≈ 113 µM) | 256 (≈ 113 µM) | 64 (≈ 28.1 µM) |  |  |  |  |
| CC[C@H](C)[C@H](NC(=O)[C@@H](NC(=O)[C@H](C)NC(=O)[C@@H]1CCCN1C(=O)[C@H](Cc1ccccc1)NC(=O)[C@@H](NC(=O)[C@H](CCCCN)NC(=O)[C@H](CO)NC(=O)[C@H](C)NC(=O)[C@@H](NC(=O)[C@H](CCCNC(=N)N)NC(=O)[C@H](Cc1ccccc1)NC(=O)[C@H](CC(C)C)NC(=O)[C@H](C)NC(=O)CNC(=O)[C@@H](N)CC(C)C)C(C)C)C(C)C)C(C)C)C(=O)N[C@@H](CO)C(=O)N[C@@H](CCSC)C(=O)N[C@H](C(=O)N[C@@H](CCCCN)C(=O)O)C(C)C [Peptide 22] (H-LGALFRVASKVFPAVISMVK-OH; N-terminus and C-terminus assumed) | 64 µg/mL (≈ 30 µM) | 64 (≈ 30 µM) | 64 (≈ 30 µM) | 256 (≈ 120 µM) |  |  |  |  |
| CC[C@H](C)[C@H](NC(=O)[C@H](CC(C)C)NC(=O)[C@H](C)NC(=O)[C@@H]1CCCN1C(=O)[C@H](Cc1ccccc1)NC(=O)[C@@H](NC(=O)[C@H](CCCCN)NC(=O)[C@H](CO)NC(=O)[C@H](C)NC(=O)[C@@H](NC(=O)[C@H](CCCNC(=N)N)NC(=O)[C@H](Cc1ccccc1)NC(=O)[C@@H](NC(=O)[C@@H](NC(=O)[C@@H]1CCCN1C(=O)[C@@H](N)CC(C)C)C(C)C)C(C)C)C(C)C)C(C)C)C(=O)N[C@@H](CO)C(=O)N[C@@H](CCCCN)C(=O)N[C@@H](CC(C)C)C(=O)N[C@H](C(=O)O)[C@@H](C)O [Peptide 35] (H-LPVVFRVASKVFPALISKLT-OH; N-terminus and C-terminus assumed) | 128 µg/mL (≈ 58.6 µM) | 256 (≈ 117 µM) | 256 (≈ 117 µM) |  | + (key: +: MIC greater than 256 ug/mL; ++: MIC greater than 128 ug/mL, not sufficiently soluble to test as 256 ug/mL) |  |  |  |
| CC(C)C[C@H](NC(=O)[C@H](C)NC(=O)[C@H](CO)NC(=O)[C@H](Cc1ccccc1)NC(=O)[C@@H](NC(=O)[C@H](CO)NC(=O)[C@@H]1CCCN1C(=O)[C@@H](NC(=O)[C@@H](NC(=O)[C@H](CCCCN)NC(=O)[C@H](CO)NC(=O)[C@H](C)NC(=O)[C@H](CC(C)C)NC(=O)[C@H](CCCCN)NC(=O)[C@H](Cc1ccccc1)NC(=O)[C@@H](NC(=O)[C@H](Cc1ccccc1)NC(=O)[C@@H](N)CO)C(C)C)C(C)C)C(C)C)C(C)C)C(=O)N[C@H](C(=O)N[C@@H](CCCNC(=N)N)C(=O)O)[C@@H](C)O [Peptide 43] (H-SFVFKLASKVVPSVFSALTR-OH; N-terminus and C-terminus assumed) | 128 µg/mL | 256 | 256 | 256 |  |  |  |  |
| CC(C)C[C@H](NC(=O)[C@H](CCCCN)NC(=O)[C@H](Cc1ccccc1)NC(=O)[C@H](CC(C)C)NC(=O)[C@@H](NC(=O)[C@@H]1CCCN1C(=O)[C@@H](N)CC(C)C)C(C)C)C(=O)N[C@@H](C)C(=O)N[C@@H](CO)C(=O)N[C@@H](CCCCN)C(=O)N[C@H](C(=O)N[C@@H](Cc1ccccc1)C(=O)N1CCC[C@H]1C(=O)N[C@@H](C)C(=O)N[C@H](C(=O)N[C@@H](Cc1ccccc1)C(=O)N[C@@H](CO)C(=O)N[C@@H](CO)C(=O)N[C@@H](CC(C)C)C(=O)N[C@@H](CCCCN)C(=O)O)C(C)C)C(C)C [Peptide 63] (H-LPVLFKLASKVFPAVFSSLK-OH; N-terminus and C-terminus assumed) | 128 µg/mL (≈ 58.4 µM) | 64 (≈ 29.2 µM) | 128 (≈ 58.4 µM) | 256 (≈ 117 µM) |  |  |  |  |
| CC(C)C[C@H](NC(=O)[C@@H](NC(=O)[C@@H]1CCCN1C(=O)[C@H](CC(C)C)NC(=O)[C@@H](N)Cc1ccccc1)C(C)C)C(=O)N[C@H](C(=O)N[C@@H](CCCCN)C(=O)N[C@H](C(=O)N[C@@H](Cc1ccccc1)C(=O)N[C@@H](CCCNC(=N)N)C(=O)N[C@@H](Cc1ccc(O)cc1)C(=O)N[C@@H](CO)C(=O)N[C@@H](CCCCN)C(=O)N[C@@H](CCCCN)C(=O)N[C@H](C(=O)N[C@@H](C)C(=O)N[C@@H](C)C(=O)NCC(=O)N[C@@H](CS)C(=O)N[C@@H](Cc1ccccc1)C(=O)O)[C@@H](C)O)C(C)C)C(C)C [Shuffled 5] (H-FLPVLVKVFRYSKKTAAGCF-OH; N-terminus and C-terminus assumed) | + (key: +: MIC greater than 256 ug/mL; ++: MIC greater than 128 ug/mL, not sufficiently soluble to test as 256 ug/mL) | 64 (≈ 28.1 µM) |  |  |  | + (MIC greater than 256 ug/mL) | ++ (MIC greater than 128 ug/mL, not sufficiently soluble to test as 256 ug/mL) |  |
| CC[C@H](C)[C@H](NC(=O)[C@H](CC(C)C)NC(=O)[C@H](C)NC(=O)[C@@H]1CCCN1C(=O)[C@H](C)NC(=O)[C@@H](NC(=O)[C@H](CCCCN)NC(=O)[C@@H](N)CCCNC(=N)N)C(C)C)C(=O)N[C@@H](CCCCN)C(=O)N[C@@H](CO)C(=O)N[C@@H](Cc1ccccc1)C(=O)N[C@H](C(=O)N[C@@H](Cc1ccccc1)C(=O)N[C@@H](CC(C)C)C(=O)N[C@@H](Cc1ccccc1)C(=O)N[C@@H](CCCCN)C(=O)N[C@@H](Cc1ccccc1)C(=O)N[C@@H](CCCCN)C(=O)N[C@@H](CCCCN)C(=O)NCC(=O)O)C(C)C [Shuffled 51] (H-RKVAPALIKSFVFLFKFKKG-OH; N-terminus and C-terminus assumed) | 256 µg/mL (≈ 110 µM) |  | 128 (≈ 55.1 µM) |  | + (key: +: MIC greater than 256 ug/mL; ++: MIC greater than 128 ug/mL, not sufficiently soluble to test as 256 ug/mL) |  |  |  |
| CC(C)C[C@H](NC(=O)[C@H](CC(C)C)NC(=O)[C@H](CO)NC(=O)[C@H](CCCCN)NC(=O)[C@H](CC(C)C)NC(=O)[C@@H]1CCCN1C(=O)[C@H](C)NC(=O)[C@H](Cc1ccccc1)NC(=O)[C@@H]1CCCN1C(=O)[C@H](CC(C)C)NC(=O)[C@@H](NC(=O)[C@H](CCCCN)NC(=O)[C@H](CCCCN)NC(=O)[C@@H](NC(=O)[C@H](CO)NC(=O)[C@@H](N)C(C)C)C(C)C)C(C)C)C(=O)N[C@@H](CO)C(=O)N[C@@H](Cc1ccccc1)C(=O)N[C@@H](C)C(=O)N[C@@H](Cc1ccccc1)C(=O)O [Shuffled 63] (H-VSVKKVLPFAPLKSLLSFAF-OH; N-terminus and C-terminus assumed) |  | 256 (≈ 117 µM) |  | 256 (≈ 117 µM) |  | + (MIC greater than 256 ug/mL) |  |  |
| ASPTVFRSSVFLSLFVVAKK [Shuffled 43] | + (key: +: MIC greater than 256 ug/mL; ++: MIC greater than 128 ug/mL, not sufficiently soluble to test as 256 ug/mL) |  |  |  |  | + (MIC greater than 256 ug/mL) | + (MIC greater than 256 ug/mL) | + (MIC greater than 256 ug/mL) |
| GVSVAGAKKVKVLFVFPFLF [Shuffled 28] | + (key: +: MIC greater than 256 ug/mL; ++: MIC greater than 128 ug/mL, not sufficiently soluble to test as 256 ug/mL) |  |  |  |  | + (MIC greater than 256 ug/mL) | + (MIC greater than 256 ug/mL) | + (MIC greater than 256 ug/mL) |
| KVFIATLVVSSFLLAKPPRV [Shuffled 35] | + (key: +: MIC greater than 256 ug/mL; ++: MIC greater than 128 ug/mL, not sufficiently soluble to test as 256 ug/mL) |  |  |  |  | + (MIC greater than 256 ug/mL) | + (MIC greater than 256 ug/mL) | + (MIC greater than 256 ug/mL) |
| SVPSVGAVLFFKRAAVMKLI [Shuffled 22] | + (key: +: MIC greater than 256 ug/mL; ++: MIC greater than 128 ug/mL, not sufficiently soluble to test as 256 ug/mL) |  |  |  |  | + (MIC greater than 256 ug/mL) | + (MIC greater than 256 ug/mL) | + (MIC greater than 256 ug/mL) |
| VFSVKGGKPSVVIKVVVAST [Shuffled 69] |  |  |  |  |  |  | + (MIC greater than 256 ug/mL) | + (MIC greater than 256 ug/mL) |
| VIAFAKTKEAKAKLKGQAKG [Shuffled 77] |  |  |  |  |  |  | + (MIC greater than 256 ug/mL) | + (MIC greater than 256 ug/mL) |
| VKDLAKFIAKTVAKQGGCYL [Peptide 33] |  |  |  |  |  |  | ++ (MIC greater than 128 ug/mL, not sufficiently soluble to test as 256 ug/mL) | ++ (MIC greater than 128 ug/mL, not sufficiently soluble to test as 256 ug/mL) |
| VKRAGKGVAVVPSPLFKIVV [Shuffled 45] |  |  |  |  |  |  | + (MIC greater than 256 ug/mL) | + (MIC greater than 256 ug/mL) |
| VKTKCSVPAVVYILVKTFKS [Shuffled 88] |  |  |  |  |  |  | + (MIC greater than 256 ug/mL) | + (MIC greater than 256 ug/mL) |
| VVAKKFFVLVKGLAPVLSPS [Shuffled 42] |  |  |  |  |  |  | + (MIC greater than 256 ug/mL) | + (MIC greater than 256 ug/mL) |
| VVGRVASKVVPSLIGLFTTK [Peptide 65] |  |  |  |  |  |  | + (MIC greater than 256 ug/mL) | + (MIC greater than 256 ug/mL) |
